Test results taken from PMC4880976, “Pharmacologic rationale for the NK1R antagonist, aprepitant as adjunctive therapy in HIV” (Journal of Translational Medicine, 2016).
“Also recorded” adds a separate entry of the source.

How the values were obtained:
[1] = Protein binding by ultrafiltration in human and rhesus macaque plasma and FBS; type: in vitro ADME; conditions: three experiments
Procedure: These experiments were conducted to assess the linkage between in vitro and in vivo exposure targets in order to more accurately project clinical dose requirements for aprepitant. Protein binding was assessed via ultrafiltration and detection of aprepitant in various biofluids was conducted via LC–MS/MS.
Ultrafiltration units (CorningR Spin-X UF; MWCO 10 K) and filtrate collection tubes were obtained from Corning (Tewksbury, MA). Control human plasma was obtained by centrifugation of blood obtained from CHOP blood bank. Stock solutions of aprepitant in methanol were added to human plasma (1 %, v/v) to provide plasma samples at a nominal concentration of 10 μg/mL. This was further diluted with human plasma to provide 5, 2 and 0.5 μg/mL solutions. Similarly, aprepitant at above four concentration were also prepared in 10 % FBS in DMEM or 10 % FBS in water. Samples were incubated at 37 °C for 30 min to ensure equilibrium was established. Following incubation, an aliquot of sample was removed for determination of the drug concentration post incubation. Triplicate 500 μL aliquots of the samples were added to the sample reservoir of the UF unit with filtrate collection tubes. All ultrafiltration units were centrifuged at 13,000 rpm (15,000×g) for 15 min at 4 °C. […] Internal standard solution (500 μL) was added to each sample analyzed by the validated LC–MS/MS method described above. […]

anxiety-related behavior = test: Anxiety-related behavior in SIV infected rhesus macaque (video recordings); type: in vivo; conditions: 125 mg/day
Procedure: Blood was collected for PK sampling on days 1, 7 and 14 and trough samples were collected prior to dosing on days 3, 5, 7, 11 and 13. […] Videotaped recordings were analyzed using Observer XT® (Noldus IT). Animals were sacrificed and necropsied after 1 year.
Fig. 4 Anxiety-related behavior* time course in SIV infected rhesus macaque receiving aprepitant at 125 mg/day or placebo. *Anxiety-related behavior was calculated based on the following parameters: body shake, hypervigilant scanning, self-licking and self-grooming, scratching, unresponsive inactivity and yawning.

human PBMC = test: SP dependent cytokine and chemokine production by PBMC, multiplex assay; type: cell-based; conditions: aprepitant 10 µM with SP 10 µM, 24 h
Procedure: For cytokine and PD-1 assessment experiments freshly isolated peripheral blood mononuclear cell (PBMC) purchased from the Human Immunology Core Facility of The University of Pennsylvania School of Medicine (Philadelphia, PA) were cultured in RPMI medium supplemented with 10 % FBS overnight. Some cultures were treated with SP (10 µM) aprepitant (10 µM) or DMSO (0.001 %, vehicle for aprepitant). Cytokine concentrations were measured in supernatants using multiplex assay 24 h after SP/aprepitant treatment (see below). For PD-1 expression SP and aprepitant were added at day 0 and PD-1 expression was monitored daily for up to 8 days using flow cytometry.
Concentrations of pro-inflammatory cytokines and chemokines in supernatants of human PBMC were measured using human Cytokine/Chemokine Magnetic Bead Panel—Premixed 30 Plex, HCYTMAG-60K-PX30 (Millipore, Billerica, MA, USA) as recommended by the manufacturers.
Fig. 5 SP dependent up regulation of cytokine and chemokine production by human PBMC* is inhibited by aprepitant. *Freshly isolated PBMC from normal donors were incubated for 24 h with SP and/or Aprepitant (10 µM each) as indicated. Control cultures were either left untreated of incubated with DMSO (vehicle for aprepitant). Pro-inflammatory markers were measured in supernatants using MILLIPORE Human Cytokine/Chemokine Magnetic Bead Panel.

[2] = 1 μM in DMEM 10 % FBS or MDM cultures, days 0-7
Procedure: A validated, liquid chromatography-tandem mass spectrometry method was used for the quantification of aprepitant plasma concentration in HIV infected animals and tissue culture media. The method utilized a simple sample-preparation procedure of protein precipitation with methanol. Chromatographic separation was performed on a reversed phase C8 column (Hypersil Gold, 50 mm × 2.1 mm, 3 μm) using a mobile phase composed of acetonitrile and water in 0.5 % formic acid through gradient elution. Electro-spray ionization in positive mode was incorporated in the tandem mass spectrometric detection. The lower limit of quantitation of aprepitant in human plasma was 1 ng/mL.
GAG expression in control (non-treated) cultures were designated as 100 %; *p < 0.0001 between all groups including control were obtained through one-way ANOVA with post-test analysis by Bonferroni’s Multiple Comparison Test indicating significant difference between all groups in pair wise comparison. b Aprepitant added to DMEM 10 % FBS media or MDM cultures at a concentration of 1 μM (0.53 μg/ml) on day 0 and measured on days 0, 1, 2, 3 and 7. Results are presented as mean ± SD for three independent experiments

pro-inflammatory markers = tested on: pro-inflammatory markers; set-up: method as in PMID 25915168; conditions: 375 mg daily, 2 weeks, HIV positive individuals; cited from earlier work

C[C@@H](O[C@H]1OCCN(Cc2n[nH]c(=O)[nH]2)[C@H]1c1ccc(F)cc1)c1cc(C(F)(F)F)cc(C(F)(F)F)c1 [aprepitant]
binding to human and rhesus macaque plasma and FBS [1]: 99.79–99.95%
anxiety-related behavior versus control (anxiety-related behavior; after first 4 weeks (weeks 12-20)): significant reduction of anxiety
anxiety-related behavior versus control (anxiety-related behavior; first 4 weeks after infection): no significant difference
effect on SP induced cytokine and chemokine production (human PBMC): blocked
degradation in culture media [2]: little or no degradation
levels of pro-inflammatory cytokines (G-CSF, MIP-1α, IL-6, IL-8, TNFα) (pro-inflammatory markers): reduced levels; also recorded: decrease; also recorded: significant reduction
sCD163, plasma SP and PD-1 expression on CD4 T-cells (pro-inflammatory markers): decrease; also recorded: reduction
